Experimental data from the supplement of paper PMC10307832.

Assays:
Assay in all cases: relative viability (nuclei count vs DMSO), 5 days (fraction); higher = more cells survive
[1] = compound: CC1=CN2C(=O)C=C(N=C2C(=C1)C(C)NC3=CC=CC=C3)N4CCOCC4 [TGX 221] + CC1(C)CCC(c2ccc(Cl)cc2)=C(CN2CCN(c3ccc(C(=O)NS(=O)(=O)c4ccc(N[C@H](CCN5CCOCC5)CSc5ccccc5)c(S(=O)(=O)C(F)(F)F)c4)cc3)CC2)C1 [Navitoclax] (partner 0.5 µM)
Outline: (§1)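 Nuclei were stained with Hoechst during a one-step fixation (final 0.05% Triton X-100, 1% formaldehyde, 1 ug/ml Hoechst) carried out 5 days after dosing, then counted on 4× images. The cells, lung cancer lines in 1536-well plates, had been dosed by pin tool the day after seeding with one drug alone or a fixed anchor-drug dose plus five library-drug doses (not always all listed) in √10 steps. Relative viability is the nuclei count in treated wells divided by that in vehicle wells, and each value is the median of duplicate plates.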

[2] = compound: C1=CC=C(C(=C1)C2=CC=C(C=C2)C3=CSC4=C3C(=C(C(=O)N4)C#N)O)O + Cc1nc(Nc2ncc(C(=O)Nc3c(C)cccc3Cl)s2)cc(N2CCN(CCO)CC2)n1 [Dasatinib] (partner 0.075 µM)
Outline: as §1

[3] = compound: CC1=CN2C(=O)C=C(N=C2C(=C1)C(C)NC3=CC=CC=C3)N4CCOCC4 [TGX 221] + CC(=O)c1c(C)c2cnc(Nc3ccc(N4CCNCC4)cn3)nc2n(C2CCCC2)c1=O [Palbociclib] (partner 0.5 µM)
Outline: as §1

[4] = compound: O=C(CCCCCCNC(=O)c1cnc(N(c2ccccc2)c2ccccc2)nc1)NO [Ricolinostat] + NC(=O)Nc1cc(-c2cccc(F)c2)sc1C(=O)N[C@H]1CCCNC1 [AZD7762] (partner 0.2 µM)
Outline: as §1

Cell Line | relative viability ([1]; first compound 0.08 µM) | relative viability ([1]; first compound 0.253 µM) | relative viability ([1]; first compound 0.8 µM) | relative viability ([1]; first compound 2.53 µM) | relative viability ([1]; first compound 8 µM) | relative viability ([2]; first compound 0.08 µM) | relative viability ([2]; first compound 0.253 µM) | relative viability ([2]; first compound 0.8 µM) | relative viability ([2]; first compound 2.53 µM) | relative viability ([2]; first compound 8 µM) | relative viability ([3]; first compound 0.08 µM) | relative viability ([3]; first compound 0.253 µM) | relative viability ([3]; first compound 0.8 µM) | relative viability ([3]; first compound 2.53 µM) | relative viability ([3]; first compound 8 µM) | relative viability ([4]; first compound 0.08 µM) | relative viability ([4]; first compound 0.253 µM) | relative viability ([4]; first compound 0.8 µM) | relative viability ([4]; first compound 2.53 µM)
A549 | 1.29 | 1.17 | 1.18 | 1.18 | 1.11 | – | – | – | – | – | – | – | – | – | – | – | – | – | –
ABC-1 | – | – | – | – | – | 0.526 | 0.65 | 0.559 | 0.542 | 0.432 | 0.742 | 0.519 | 0.654 | 0.648 | 0.597 | 0.945 | 0.788 | 0.748 | 0.617
COR-L23 | 1.01 | 1.02 | 0.963 | 0.954 | 0.997 | 0.492 | 0.48 | 0.61 | 0.548 | 0.272 | 0.247 | 0.278 | 0.305 | 0.3 | 0.284 | – | – | – | –
COR-L 105 | 0.97 | 0.613 | 0.842 | 0.799 | 0.558 | 0.337 | 0.301 | 0.272 | 0.302 | 0.309 | 0.417 | 0.4 | 0.332 | 0.473 | 0.41 | – | – | – | –
Calu-6 | 0.853 | 0.813 | 0.872 | 0.753 | 0.733 | – | – | – | – | – | – | – | – | – | – | – | – | – | –
EBC-1 | 0.43 | 0.408 | 0.428 | 0.277 | 0.258 | – | – | – | – | – | – | – | – | – | – | – | – | – | –
IA-LM | 0.722 | 0.707 | 1.02 | 0.849 | 1.02 | – | – | – | – | – | – | – | – | – | – | – | – | – | –
LCLC-103H | – | – | – | – | – | 0.33 | 0.415 | 0.458 | 0.463 | 0.404 | 0.472 | 0.471 | 0.469 | 0.424 | 0.495 | 0.694 | 0.754 | 0.749 | 0.626
NCI-H358 | – | – | – | – | – | 0.211 | 0.2 | 0.174 | 0.139 | 0.196 | 0.116 | 0.118 | 0.149 | 0.116 | 0.125 | – | 0.519 | 0.414 | 0.312
NCI-H520 | 1.24 | 0.944 | 1.03 | 0.756 | 0.648 | 0.193 | 0.179 | 0.258 | 0.202 | 0.212 | 0.156 | 0.139 | 0.146 | 0.166 | 0.132 | – | – | – | –
NCI-H522 | – | – | – | – | – | 0.849 | 0.761 | 0.957 | 0.829 | 0.837 | 0.941 | 1.01 | 0.929 | 0.944 | 0.815 | 0.877 | 0.838 | 0.853 | 0.822
NCI-H650 | – | – | – | – | – | 0.45 | 0.449 | 0.428 | 0.474 | 0.428 | 0.303 | 0.294 | 0.307 | 0.32 | 0.273 | 0.706 | 0.993 | 0.849 | 0.579
NCI-H661 | – | – | – | – | – | 0.771 | 0.916 | 1.07 | 0.834 | 0.801 | 0.427 | 0.43 | 0.396 | 0.406 | 0.376 | – | – | – | –
NCI-H1299 | 1.01 | 1.03 | 1.04 | 1.07 | 0.985 | – | – | – | – | – | – | – | – | – | – | – | – | – | –
NCI-H1563 | – | – | – | – | – | 0.469 | 0.553 | 0.529 | 0.439 | 0.477 | – | – | – | – | – | – | – | – | –
NCI-H1623 | – | – | – | – | – | 0.484 | 0.548 | 0.496 | 0.603 | 0.546 | – | – | – | – | – | – | – | – | –
NCI-H1648 | – | – | – | – | – | – | – | – | – | – | – | 0.247 | 0.231 | 0.25 | 0.273 | – | 0.651 | 0.524 | 0.494
NCI-H1650 | 1.23 | 1.14 | 1.27 | 1.04 | 0.456 | 0.253 | 0.393 | 0.349 | 0.322 | 0.318 | 0.305 | 0.298 | 0.294 | 0.257 | 0.191 | – | – | – | –
NCI-H2009 | 1.13 | 1.16 | 1.17 | 1.02 | 0.927 | 0.322 | 0.267 | 0.322 | 0.302 | 0.29 | 0.216 | 0.191 | 0.118 | 0.175 | 0.166 | – | – | – | –
NCI-H2023 | 0.987 | 0.965 | 0.988 | 0.925 | 0.758 | 0.444 | 0.521 | 0.648 | 0.55 | 0.433 | 0.328 | 0.337 | 0.269 | 0.342 | 0.212 | – | – | – | –
NCI-H2228 | 0.856 | 0.949 | 0.609 | 0.931 | 0.644 | 0.511 | 0.476 | 0.567 | 0.606 | 0.475 | 0.692 | 0.689 | 0.989 | 0.675 | 0.719 | – | – | – | –
SK-LU-1 | 0.392 | 0.84 | 0.726 | 0.786 | 0.772 | 0.172 | 0.198 | 0.161 | 0.198 | 0.196 | 0.342 | 0.359 | 0.357 | 0.379 | 0.317 | – | – | – | –
SK-MES-1 | 1.17 | 1.05 | 1.13 | 1.05 | 0.996 | 0.391 | 0.334 | 0.309 | 0.274 | 0.359 | 0.304 | 0.336 | 0.308 | 0.287 | 0.323 | – | – | – | –
SW 1573 | 0.814 | 0.811 | 0.926 | 0.821 | 0.753 | 0.498 | 0.618 | 0.662 | 0.666 | 0.369 | 0.299 | 0.313 | 0.39 | 0.341 | 0.343 | – | – | – | –
UMC-11 | 0.352 | 0.304 | 0.337 | 0.283 | 0.259 | 0.328 | 0.432 | 0.573 | 0.524 | 0.374 | 0.299 | 0.328 | 0.306 | 0.338 | 0.374 | – | – | – | –
